Test system: ERK1/2 phosphorylation at Thr-202/Tyr-204
Assay: Western blot of ERK1/2 phosphorylation
Format: cell-based, human
Settings: 300 nM ILV, 1 hour, compared to DMSO-treated control
Method: Cells were lysed in 1×RIPA lysis buffer (Upstate Biotechnology) with 1% protease inhibitor mixture (Sigma)/1% phosphatase inhibitor mixture (Sigma)/1% phosphatase inhibitor mixture II (Sigma). Proteins were separated by 4-20% Tris-Glycine SDS/PAGE (Biorad) under denaturing conditions and transferred to a nitrocellulose membrane. After blocking with 5% nonfat milk in DPBS, the membrane was incubated with primary antibodies against phospho-ERK1/2 (Thr-202/Tyr-204) (1:2,000, Sigma) and ERK1/2 (1:1,000, Cell Signaling) overnight at 4° C. The membrane was then washed, incubated with anti-mouse/rabbit peroxidase-conjugated affinity-purified secondary antibody (1:1000, Cell Signaling) at room temperature for 1 hour, and developed by SuperSignal chemiluminescence (Pierce).
Experiments were performed to monitor downstream signaling by PKC. Since ERK signaling has been reported to be regulated by PKC (Ueda et al., 1996), the activity of ERK signaling was examined with Western blotting to detect the phosphorylation of ERK1/2 at Thr-202/Tyr-204. After 1 hour treatment with 300 nM ILV, the phosphorylation of ERK1/2 increased compared to the DMSO-treated control (FIG. 8a). In addition, MEK/ERK inhibitors, PD098059 or U0126, both block ILV's effect. […]

Substance: (−)-Indolactam V [ILV]
- phosphorylation of ERK1/2: increased

Source: patent publication US9157062B2, “Compositions and methods for promoting the generation of PDX1+ pancreatic cells” (President and Fellows of Harvard College, priority 2008, dated 2015)
